Results as given in paper PMC12436592 (Nature Communications, 2025).
Where “and” joins values, the source holds several entries; their conditions need not be identical. Identical values can stand only once. One block for each molecule: values may come before it.

Experiments:
[1] = design: method as in PMID 39139642; conditions: cited from earlier work
[2] = system: P2X7R; conditions: cited from earlier work
[3] = biological target: T1, hP2X7R (Homo sapiens, UniProt Q99572); test: Bio-layer interferometry (BLI), ATP binding to biotinylated hP2X7R
T1 sequence (Q99572 1-595): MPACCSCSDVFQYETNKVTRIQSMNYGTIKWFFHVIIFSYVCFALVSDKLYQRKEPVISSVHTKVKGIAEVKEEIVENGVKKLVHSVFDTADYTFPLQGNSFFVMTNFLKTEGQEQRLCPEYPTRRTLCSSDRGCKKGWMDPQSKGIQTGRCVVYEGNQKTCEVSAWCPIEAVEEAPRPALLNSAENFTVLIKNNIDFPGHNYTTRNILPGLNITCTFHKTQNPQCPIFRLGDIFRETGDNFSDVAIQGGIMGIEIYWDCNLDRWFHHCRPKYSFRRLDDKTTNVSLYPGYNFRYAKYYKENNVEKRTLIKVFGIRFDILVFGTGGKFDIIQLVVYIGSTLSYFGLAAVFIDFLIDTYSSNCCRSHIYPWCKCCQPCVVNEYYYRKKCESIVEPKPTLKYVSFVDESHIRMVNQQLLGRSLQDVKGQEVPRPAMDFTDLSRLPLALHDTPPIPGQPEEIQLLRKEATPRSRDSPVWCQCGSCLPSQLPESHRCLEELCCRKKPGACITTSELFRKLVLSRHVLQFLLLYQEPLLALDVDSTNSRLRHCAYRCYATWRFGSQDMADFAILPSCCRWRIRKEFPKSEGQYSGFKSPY
Procedure: Briefly, BLI experiments were performed at 30 °C in 384-well tilted-bottom plates (Sartorius) with orbital shaking at 1000 r.p.m. on a ForteBio Octet RED384 instrument (ForteBio Data Acquisition software 11.0) using pre-equilibrated (0.22 μm filtered PBS at pH 7.4 and 0.5 mM DDM from Anatrace) SA biosensor tips (Sartorious) loaded with 50 μg/mL of biotinylated hP2X7R ligand or biocytin (Sigma-Aldrich) control for 1800 s[34],[35]. The loaded SA sensors were blocked with 100 μg/mL of biocytin for 150 s and then washed with running buffer for 60 s. […] After data collection, rate constants for association and dissociation were determined using ForteBio Data Analysis HT 11.0 evaluation software. To maximize signal between the large ligand and small analyte, the raw data were double reference subtracted[34],[35]. For each interaction pair, the association rate constant (ka) and the dissociation rate constant (kd) were calculated with an average of three independent assays with at least four different concentrations that were globally fit to a 1:1 Langmuir binding model. The equilibrium dissociation constant (KD) was calculated as the ratio of kd to ka. The KD, ka, and kd values are reported as the average ± the standard deviation of three replicate datasets for each analyte, with each dataset using at least four independent traces. The analyzed data were exported and plotted in GraphPad Prism 9.0.

[4] = biological target: rP2X7R; design: method as in PMID 39107314; conditions: BLI; read-out: equilibrium dissociation constant (KD), rP2X7R; cited from earlier work
[5] = biological target: T2, rP2X7R (Rattus norvegicus, UniProt Q64663); test: TEVC dose response of ATP at rP2X7R in Xenopus oocytes; type: cell-based; design: expressed in transfected cells; host or cells: Xenopus laevis oocytes injected with mRNA made from pcDNA 3.1x
T2 sequence (Q64663 1-595): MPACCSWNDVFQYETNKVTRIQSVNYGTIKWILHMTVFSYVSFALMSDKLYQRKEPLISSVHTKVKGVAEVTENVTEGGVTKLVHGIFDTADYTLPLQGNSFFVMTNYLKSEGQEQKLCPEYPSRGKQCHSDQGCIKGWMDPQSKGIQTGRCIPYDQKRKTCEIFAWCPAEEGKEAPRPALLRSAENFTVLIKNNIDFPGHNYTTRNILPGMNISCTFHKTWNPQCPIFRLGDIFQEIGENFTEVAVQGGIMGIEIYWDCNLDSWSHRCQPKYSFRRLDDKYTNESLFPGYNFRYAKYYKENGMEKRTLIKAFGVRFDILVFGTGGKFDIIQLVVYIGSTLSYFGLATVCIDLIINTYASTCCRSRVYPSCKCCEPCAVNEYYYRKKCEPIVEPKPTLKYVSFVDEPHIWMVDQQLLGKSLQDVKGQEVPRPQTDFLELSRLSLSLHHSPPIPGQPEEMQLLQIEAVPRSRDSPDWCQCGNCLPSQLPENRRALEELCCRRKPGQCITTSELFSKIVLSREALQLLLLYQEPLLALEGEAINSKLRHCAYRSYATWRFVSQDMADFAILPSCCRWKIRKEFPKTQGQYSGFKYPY
Procedure: (§1) Defolliculated Xenopus laevis oocytes were purchased from Ecocyte Bioscience and kept in Modified Barth’s Solution (88 mM NaCl, 1 mM KCl, 0.82 mM MgSO4, 0.33 mM Ca(NO3)2·4H2O, 0.41 mM CaCl2·2H2O, 2.4 mM NaHCO3, 5 mM HEPES) supplemented with amikacin 250 mg/L and gentamycin 150 mg/L. Oocytes were then injected with 50 nL of either full-length wild-type hP2X7R (40 ng/μL), mP2X7R (20 ng/μL), or rP2X7R (20 ng/μL) mRNA made from linearized pcDNA 3.1x according to the protocol provided in the mMessage mMachine kit (Invitrogen). Injected oocytes were allowed to express for ~20 h before recording was performed.
(§2) Data acquisition was performed using an Oocyte Clamp OC-725C amplifier and pClamp 8.2 software. Buffers were applied using a gravity-fed RSC-200 Rapid Solution Changer, flowing at ~5 mL/min. All experiments use Sutter filamented glass 10 cm in length with an inner diameter of 0.69 mm and an outer diameter of 1.2 mm to impale oocytes and clamp the holding voltage at −60 mV. Experiments were recorded in buffer containing 100 mM NaCl, 2.5 mM KCl, 0.1 mM EDTA, 0.1 mM flufenamic acid, and 5 mM HEPES at pH 7.4.
(§3) This value is then averaged amongst each singular condition and reported as the mean ± SD.

[6] = biological target: T3, mP2X7R (Mus musculus, UniProt Q9Z1M0); test: TEVC dose response of ATP at mP2X7R in Xenopus oocytes; type: cell-based
T3 construct: expressed in transfected cells
T3 sequence (Q9Z1M0 1-595): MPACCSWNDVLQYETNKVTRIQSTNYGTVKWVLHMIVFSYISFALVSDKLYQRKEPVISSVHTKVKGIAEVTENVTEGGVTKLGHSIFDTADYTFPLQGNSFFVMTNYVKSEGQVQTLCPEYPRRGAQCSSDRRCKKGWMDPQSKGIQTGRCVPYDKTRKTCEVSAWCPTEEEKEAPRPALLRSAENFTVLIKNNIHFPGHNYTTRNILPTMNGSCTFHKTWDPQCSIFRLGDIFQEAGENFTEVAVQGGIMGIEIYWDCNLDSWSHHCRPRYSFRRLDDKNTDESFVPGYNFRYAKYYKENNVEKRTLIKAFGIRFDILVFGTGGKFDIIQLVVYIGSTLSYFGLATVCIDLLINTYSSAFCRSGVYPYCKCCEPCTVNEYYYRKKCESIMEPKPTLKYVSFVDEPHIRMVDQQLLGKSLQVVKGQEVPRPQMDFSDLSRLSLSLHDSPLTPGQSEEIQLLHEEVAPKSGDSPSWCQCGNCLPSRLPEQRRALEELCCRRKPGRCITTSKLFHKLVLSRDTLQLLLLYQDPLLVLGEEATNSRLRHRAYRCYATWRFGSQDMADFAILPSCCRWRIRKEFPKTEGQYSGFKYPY
Procedure: as §1, §2, §3

[7] = biological target: T1, hP2X7R; test: TEVC dose response of ATP at hP2X7R in Xenopus oocytes; type: cell-based; design: expressed in transfected cells; host or cells: Xenopus laevis oocytes injected with mRNA made from pcDNA 3.1x
Procedure: as §1, §2, §3

[8] = biological target: the molecule itself; test: cryo-EM structure; purified detergent-solubilised receptor (20 mM HEPES pH 7.0, 100 mM NaCl, 0.5 mM C12M); apo, or incubated with 900 uM ATP or antagonist at 3-4x the molar concentration of the monomer
[9] = [ATP] 3000 μM, single experiments

Molecule: O=C(NCC12CC3CC(CC(C3)C1)C2)c1cc(CCCNCCCO)ccc1Cl [AZD9056]
- efficacy in phase II trials for rheumatoid arthritis [1]: limited efficacy

Molecule: Clc1cccc(-c2nnnn2Cc2cccnc2)c1Cl [Compound A438079]
- inhibitory activity across human, mouse and rat orthologs [2]: equal inhibitory activity across all three orthologs

- rate constant for association (ka) ([3]; BLI, 1:1 Langmuir model): 7.4 ± 1.3 × 10^4 M^−1 s^−1
- rate constant for dissociation (kd) ([3]; BLI, 1:1 Langmuir model): 4.8 ± 1.2 × 10^−2 s^−1
- Kd ([3]; BLI, mean ± SD, triplicate, read-out: equilibrium dissociation constant (KD), hP2X7R): 0.65 ± 0.12 µM
- KD higher than at the rP2X7R ([3]; hP2X7R vs rP2X7R): ~ 20%
- ka slower than for ATP binding to the rP2X7R ([3]; hP2X7R vs rP2X7R): ~ 27%
- kd slower than for ATP binding to the rP2X7R ([3]; hP2X7R vs rP2X7R): ~ 6%
- Normalized response, rP2X7R ([5]; [ATP] 2 μM): 0
- Normalized response, rP2X7R ([5]; [ATP] 37 μM): 0.41 and 0.5375 and 0.6343
- Normalized response, rP2X7R ([5]; [ATP] 1000 μM): 0.98 and 0.9571 and 0.9954
- Normalized response, rP2X7R [5, 9]: 1 and 0.9691
- EC50 ([5]; read-out: EC50 for ATP, rP2X7R, TEVC, absence of divalent cations, mean ± SD, triplicate): 34 ± 8.4 µM
- Normalized response, mP2X7R ([6]; [ATP] 1.2 μM): 0.02 and 0.01
- Normalized response, mP2X7R ([6]; [ATP] 3.7 μM): 0.017 and 0.013 and 0.009
- Normalized response, mP2X7R ([6]; [ATP] 37 μM): 0.27 and 0.22 and 0.15
- Normalized response, mP2X7R ([6]; [ATP] 1000 μM): 1 and 0.88
- Normalized response, mP2X7R [6, 9]: 1 and 0.9
- EC50 ([6]; read-out: EC50 for ATP, mP2X7R, TEVC, absence of divalent cations, mean ± SD, triplicate): 70 ± 17 µM
- Normalized response, hP2X7R ([7]; [ATP] 37 μM): 0.2 and 0.1456
- Normalized response, hP2X7R ([7]; [ATP] 1000 μM): 1 and 1.01 and 0.9474
- Normalized response, hP2X7R [7, 9]: 1.044 and 1.035 and 1.029
- EC50 ([7]; read-out: EC50 for ATP, hP2X7R, TEVC, absence of divalent cations, mean ± SD, triplicate): 89 ± 8.3 µM
Molecule: Nc1ncnc2c1ncn2[C@@H]1O[C@H](COP(=O)(O)OP(=O)(O)OP(=O)(O)O)[C@@H](O)[C@H]1O [ATP]
- Kd [4]: 0.54 ± 0.23 µM

B1: full-length wild-type mouse P2X7 receptor (receptor, UniProt Q9Z1M0 1-595, looked up)
chain: MPACCSWNDVLQYETNKVTRIQSTNYGTVKWVLHMIVFSYISFALVSDKLYQRKEPVISSVHTKVKGIAEVTENVTEGGVTKLGHSIFDTADYTFPLQGNSFFVMTNYVKSEGQVQTLCPEYPRRGAQCSSDRRCKKGWMDPQSKGIQTGRCVPYDKTRKTCEVSAWCPTEEEKEAPRPALLRSAENFTVLIKNNIHFPGHNYTTRNILPTMNGSCTFHKTWDPQCSIFRLGDIFQEAGENFTEVAVQGGIMGIEIYWDCNLDSWSHHCRPRYSFRRLDDKNTDESFVPGYNFRYAKYYKENNVEKRTLIKAFGIRFDILVFGTGGKFDIIQLVVYIGSTLSYFGLATVCIDLLINTYSSAFCRSGVYPYCKCCEPCTVNEYYYRKKCESIMEPKPTLKYVSFVDEPHIRMVDQQLLGKSLQVVKGQEVPRPQMDFSDLSRLSLSLHDSPLTPGQSEEIQLLHEEVAPKSGDSPSWCQCGNCLPSRLPEQRRALEELCCRRKPGRCITTSKLFHKLVLSRDTLQLLLLYQDPLLVLGEEATNSRLRHRAYRCYATWRFGSQDMADFAILPSCCRWRIRKEFPKTEGQYSGFKYPY
modifications: palmitoylation of residues in the C-cys anchor
notes: P2X7 receptor (P2X purinoceptor 7), mouse, full-length wild-type, no mutations or truncations; C-terminal HRV 3-C site, GFP and histidine tag removed during purification; Homotrimeric ion channel; solved in the apo closed state; also called mP2X7R; mP2X7; not shown: GFP, C-terminal, cleaved
- stoichiometry N [8]: 3

B2: full-length wild-type human P2X7 receptor (receptor, UniProt Q99572 1-595, looked up)
chain: MPACCSCSDVFQYETNKVTRIQSMNYGTIKWFFHVIIFSYVCFALVSDKLYQRKEPVISSVHTKVKGIAEVKEEIVENGVKKLVHSVFDTADYTFPLQGNSFFVMTNFLKTEGQEQRLCPEYPTRRTLCSSDRGCKKGWMDPQSKGIQTGRCVVYEGNQKTCEVSAWCPIEAVEEAPRPALLNSAENFTVLIKNNIDFPGHNYTTRNILPGLNITCTFHKTQNPQCPIFRLGDIFRETGDNFSDVAIQGGIMGIEIYWDCNLDRWFHHCRPKYSFRRLDDKTTNVSLYPGYNFRYAKYYKENNVEKRTLIKVFGIRFDILVFGTGGKFDIIQLVVYIGSTLSYFGLAAVFIDFLIDTYSSNCCRSHIYPWCKCCQPCVVNEYYYRKKCESIVEPKPTLKYVSFVDESHIRMVNQQLLGRSLQDVKGQEVPRPAMDFTDLSRLPLALHDTPPIPGQPEEIQLLRKEATPRSRDSPVWCQCGSCLPSQLPESHRCLEELCCRKKPGACITTSELFRKLVLSRHVLQFLLLYQEPLLALDVDSTNSRLRHCAYRCYATWRFGSQDMADFAILPSCCRWRIRKEFPKSEGQYSGFKSPY
modifications: palmitoylation of residues in the C-cys anchor; limited glycosylation, acylation and palmitoylation modelled
notes: P2X7 receptor (P2X purinoceptor 7), human, full-length wild-type, no mutations or truncations; C-terminal HRV 3-C site, GFP and histidine tag removed during purification; Homotrimeric ion channel; also called hP2X7R; hP2X7; not shown: GFP, C-terminal, cleaved
- stoichiometry N [8]: 3
